This is an account of results in US9914730B2, “Azaquinazoline inhibitors of Atypical protein Kinase C” (Ignyta, Inc., priority 2012, dated 2018).

The experiment addresses T1, full-length human PKCι (Homo sapiens, UniProt P41743).
T1 construct: Recombinant, full-length human PKCι expressed in Sf21 insect cells is also commercially available; purchased; host or cells: Sf21 insect cells
T1 sequence (P41743 1-596): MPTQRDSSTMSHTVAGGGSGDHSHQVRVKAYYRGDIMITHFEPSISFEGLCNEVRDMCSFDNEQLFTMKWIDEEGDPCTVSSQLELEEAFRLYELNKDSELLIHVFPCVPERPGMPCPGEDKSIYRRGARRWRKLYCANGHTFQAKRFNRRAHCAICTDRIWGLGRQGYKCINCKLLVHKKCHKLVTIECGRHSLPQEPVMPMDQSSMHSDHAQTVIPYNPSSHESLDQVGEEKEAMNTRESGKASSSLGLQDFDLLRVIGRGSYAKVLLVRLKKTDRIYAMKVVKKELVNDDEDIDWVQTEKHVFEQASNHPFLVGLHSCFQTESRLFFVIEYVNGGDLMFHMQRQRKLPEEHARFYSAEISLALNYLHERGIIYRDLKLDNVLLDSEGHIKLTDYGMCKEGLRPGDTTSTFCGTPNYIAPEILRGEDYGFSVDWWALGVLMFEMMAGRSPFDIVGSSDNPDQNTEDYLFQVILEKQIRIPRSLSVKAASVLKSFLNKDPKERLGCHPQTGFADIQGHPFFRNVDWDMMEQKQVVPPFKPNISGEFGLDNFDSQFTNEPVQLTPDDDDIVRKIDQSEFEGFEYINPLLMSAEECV
The experiment can be described thus: PKCι IC50 IMAP assay, full-length PKCι at 150 μM ATP. The conditions noted are these: read-out: IC50 in IMAP assay against full length PKCi at 150 μM ATP. In kind it is biochemical. An outline of the steps:
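Full-length human PKCι from Sf21 cells, typically 15 pM, with 100 nM 5FAM-PKCε pseudosubstrate peptide and 150 μM ATP (5× apparent KM), 60 min at room temperature, 4% DMSO. IMAP fluorescence polarisation read-out; inhibition normalised to no-compound and no-enzyme controls, IC50 from curve fit.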

By IC50 is commonly meant the midpoint of a concentration-inhibition curve.

Each structure is given as a SMILES string.

Regarding `CC[C@H]1CN(c2nc(-c3ccncc3)nc3cnccc23)CCN1` [Example 61, (3S)-3-ethyl-1-[2-(pyridin-4-yl)-pyrido[3,4-d]-pyrimidin-4-yl]-piperazine], the IC50 lay within 1000 to 10000 nM.

Regarding `c1cc(-c2nc(N3CCNCC3)c3c(C4CC4)cncc3n2)c2cc(C3CCCCC3)[nH]c2n1` [Example 2152, 5-Cyclopropyl-2-(2-cyclohexyl-1H-pyrrolo[2,3-b]pyridin-4-yl)-4-piperazin-1-yl-pyrido[3,4-d]pyrimidine], the IC50 was under 100 nM.

Take `CN(c1nc(-c2ccnc(Nc3ncc(F)cc3F)c2)nc2cncc(C3CCC3)c12)C1CCNCC1` [Example 2157, {5-Cyclobutyl-2-[2-(3,5-difluoro-pyridin-2-ylamino)-pyridin-4-yl]-pyrido[3,4-d]pyrimidin-4-yl}-methyl-piperidin-4-yl-amine]: the IC50 was under 100 nM.

For `Cc1ccc(F)cc1Nc1cc(-c2nc(N3CCNCC3)c3c(C4CC4)cncc3n2)ccn1` [Example 523, [4-(5-Cyclopropyl-4-piperazin-1-yl-pyrido[3,4-d]pyrimidin-2-yl)-pyridin-2-yl]-(5-fluoro-2-methyl-phenyl)-amine], the IC50 is under 100 nM. Regarding `COc1cncc2nc(N3CCOCC3)nc(N3CCC[C@H](Nc4ccccc4)C3)c12` [Example 1007, [(S)-1-(5-Methoxy-2-morpholin-4-yl-pyrido[3,4-d]pyrimidin-4-yl)-piperidin-3-yl]-phenyl-amine], the IC50 was 1000 to 10000 nM. Then `Fc1cc(C2CC2)cc(F)c1Nc1cc(-c2nc(N3CCNCC3)c3c(C4CC4)cncc3n2)ccn1` [Example 603, (4-Cyclopropyl-2,6-difluoro-phenyl)-[4-(5-cyclopropyl-4-piperazin-1-yl-pyrido[3,4-d]pyrimidin-2-yl)-pyridin-2-yl]-amine], with under 100 nM; and `COc1cncc2nc(-c3ccnc(Nc4ccccc4)c3)nc(N3CCN[C@H](CO)C3)c12` [Example 222, {(S)-4-[5-Methoxy-2-(2-phenylamino-pyridin-4-yl)-pyrido[3,4-d]pyrimidin-4-yl]-piperazin-2-yl}-methanol], with under 100 nM. Consider `CCNC(=O)C1CCN(c2nc(-c3ccnc(Nc4c(F)cccc4F)c3)nc3cncc(C4CC4)c23)CC1` [Example 723, 1-{5-Cyclopropyl-2-[2-(2,6-difluoro-phenylamino)-pyridin-4-yl]-pyrido[3,4-d]pyrimidin-4-yl}-piperidine-4-carboxylic acid ethylamide], for which the IC50 is 1000 to 10000 nM. Under `N[C@H](CNc1nc(-c2ccncc2)nc2c(Nc3cccc(Cl)c3)nccc12)Cc1ccccc1` [Example 125, 4-N-[(2S)-2-amino-3-phenylpropyl]-8-N-(3-chlorophenyl)-2-(pyridin-4-yl)pyrido[3,4-d]pyrimidine-4,8-diamine] stands 1000 to 10000 nM; under `Fc1ccnc(Nc2cc(-c3nc(N4CCNCC4)c4c(C5CCC5)cncc4n3)ccn2)c1` [Example 785, [4-(5-Cyclobutyl-4-piperazin-1-yl-pyrido[3,4-d]pyrimidin-2-yl)-pyridin-2-yl]-(4-fluoro-pyridin-2-yl)-amine], under 100 nM. Under `CC(=O)NC1CCN(c2nc(-c3ccnc(Nc4c(F)cccc4F)c3)nc3cncc(C4CC4)c23)C1` (stereo not shown) [Example 713, N-(1-{5-Cyclopropyl-2-[2-(2,6-difluoro-phenylamino)-pyridin-4-yl]-pyrido[3,4-d]pyrimidin-4-yl}-pyrrolidin-3-yl)-acetamide] stands 100 to 1000 nM. As for `Fc1cccc(F)c1Nc1cc(-c2nc(NC[C@@H]3CCCN3)c3c(C4CC4)cncc3n2)ccn1` [Example 698, {5-Cyclopropyl-2-[2-(2,6-difluoro-phenylamino)-pyridin-4-yl]-pyrido[3,4-d]pyrimidin-4-yl}-(S)-1-pyrrolidin-2-ylmethyl-amine], the IC50 was 100 to 1000 nM. Then `CN1CCN(c2cccc(Nc3cc(-c4nc(N5CCCC5)c5c(C6CC6)cncc5n4)ccn3)c2)CC1` [Example 760, [4-(5-Cyclopropyl-4-pyrrolidin-1-yl-pyrido[3,4-d]pyrimidin-2-yl)-pyridin-2-yl]-[3-(4-methyl-piperazin-1-yl)-phenyl]-amine], with 100 to 1000 nM; and `FC(F)(F)c1ccc(Nc2cc(-c3nc(N[C@@H]4CCNC4)c4ccncc4n3)ccn2)nc1` [Example 351, (R)-Pyrrolidin-3-yl-{2-[2-(5-trifluoromethyl-pyridin-2-ylamino)-pyridin-4-yl]-pyrido[3,4-d]pyrimidin-4-yl}-amine], with under 100 nM; and `COc1cncc2nc(-c3ccnc(Nc4ccc(C#N)cc4F)c3)nc(N3CCNCC3)c12` [Example 419, 3-Fluoro-4-[4-(5-methoxy-4-piperazin-1-yl-pyrido[3,4-d]pyrimidin-2-yl)-pyridin-2-ylamino]-benzonitrile], with 100 to 1000 nM. Regarding `COc1cncc2nc(-c3ccncc3)nc(N3CCNC(C(=O)NCCc4ccccc4)C3)c12` (stereo not shown) [Example 158, 4-(5-Methoxy-2-pyridin-4-yl-pyrido[3,4-d]pyrimidin-4-yl)-piperazine-2-carboxylic acid phenethyl-amide], the IC50 lay within 1000 to 10000 nM. Under `c1ccc(Nc2cc(-c3nc(N4CCN[C@@H](C5CC5)C4)c4c(C5CC5)cncc4n3)ccn2)cc1` [Example 273, {4-[5-Cyclopropyl-4-((S)-3-cyclopropyl-piperazin-1-yl)-pyrido[3,4-d]pyrimidin-2-yl]-pyridin-2-yl}-phenyl-amine] stands under 100 nM; under `COc1cncc2nc(-c3ccnc(Nc4ccccc4)c3)nc(N3CCC(O)C(O)C3)c12` (single isomer, unassigned) [Example 464, (3S,4R)-1-[5-Methoxy-2-(2-phenylamino-pyridin-4-yl)-pyrido[3,4-d]pyrimidin-4-yl]-piperidine-3,4-diol or (3R,4S)-1-[5-Methoxy-2-(2-phenylamino-pyridin-4-yl)-pyrido[3,4-d]pyrimidin-4-yl]-piperidine-3,4-diol], 100 to 1000 nM. As to `CS(=O)(=O)C[C@H]1CN(c2nc(-c3ccnc(Nc4ccc(F)cc4)c3)nc3cncc(C4CC4)c23)CCN1` [Example 771, {4-[5-Cyclopropyl-4-((R)-3-methanesulfonyl-methyl-piperazin-1-yl)-pyrido[3,4-d]pyrimidin-2-yl]-pyridin-2-yl}-(4-fluoro-phenyl)-amine], the IC50 lay in the range of 1000 to 10000 nM. `Fc1ccc(Nc2cc(-c3nc(N4CCNCC4)c4c(C5CC5)cncc4n3)ccn2)c(Cl)c1` [Example 570, (2-Chloro-4-fluoro-phenyl)-[4-(5-cyclopropyl-4-piperazin-1-yl-pyrido[3,4-d]pyrimidin-2-yl)-pyridin-2-yl]-amine]: the IC50 was under 100 nM. Under `CN1CCN(c2nccc3c(NC[C@H](N)Cc4ccccc4)nc(-c4ccncc4)nc23)CC1` [Example 127, (R)—N^1-[8-(4-Methyl-piperazin-1-yl)-2-pyridin-4-yl-pyrido[3,4-d]pyrimidin-4-yl]-3-phenyl-propane-1,2-diamine] stands 10000 to 40000 nM; under `FC(F)(F)C1CN(c2nc(-c3ccncc3)nc3c(Cl)nccc23)CCN1` (stereo not shown) [Example 60, 1-[8-chloro-2-(pyridin-4-yl)-pyrido[3,4-d]-pyrimidin-4-yl]-3-(trifluoromethyl)-piperazine], 1000 to 10000 nM; under `N[C@H](CNc1nc(-c2ccncc2)nc2cnc(Cl)cc12)Cc1ccccc1` [Example 12, N-[(2S)-2-amino-3-phenylpropyl]-6-chloro-2-(pyridin-4-yl)pyrido[3,4-d]-pyrimidin-4-amine], under 100 nM. Then `COc1ccc(F)c(Nc2cc(-c3nc(N4CCNCC4)c4c(C5CC5)cncc4n3)ccn2)n1` [Example 762, [4-(5-Cyclopropyl-4-piperazin-1-yl-pyrido[3,4-d]pyrimidin-2-yl)-pyridin-2-yl]-(3-fluoro-6-methoxy-pyridin-2-yl)-amine], with under 100 nM. For `C[C@H]1CN(c2nc(-c3ccnc(Nc4c(F)cccc4F)c3)nc3cncc(C4CC4)c23)CCN1` [Example 692, {4-[5-Cyclopropyl-4-((S)-3-methyl-piperazin-1-yl)-pyrido[3,4-d]pyrimidin-2-yl]-pyridin-2-yl}-(2,6-difluoro-phenyl)-amine], the IC50 was under 100 nM.

In the case of `C[C@@H](Nc1cc(-c2nc(N3CCNC(C)(C)C3)c3c(C4CC4)cncc3n2)ccn1)C1CCCCC1` [Example 835, ((R)-1-Cyclohexyl-ethyl)-{4-[5-cyclopropyl-4-(3,3-dimethyl-piperazin-1-yl)-pyrido[3,4-d]pyrimidin-2-yl]-pyridin-2-yl}-amine], the IC50 was under 100 nM.

As for `COc1cncc2nc(-c3ccnc(Nc4ccc(C(F)(F)F)cc4)c3)nc(N3CCNCC3)c12` [Example 207, [4-(5-Methoxy-4-piperazin-1-yl-pyrido[3,4-d]pyrimidin-2-yl)-pyridin-2-yl]-(4-trifluoromethyl-phenyl)-amine], the IC50 fell in the range of 100 to 1000 nM. Turning to `Fc1cc(F)nc(Nc2cc(-c3nc(N4CCNCC4)c4c(C5CC5)cncc4n3)ccn2)c1` [Example 836, [4-(5-Cyclopropyl-4-piperazin-1-yl-pyrido[3,4-d]pyrimidin-2-yl)-pyridin-2-yl]-(4,6-difluoro-pyridin-2-yl)-amine], the IC50 is under 100 nM.
